According to US10376520B2, “Methods for the treatment of cardiovascular disorders” (Galapagos NV, priority 2015, dated 2019):

Tested on: RA patients
Assay: [HDL] determination, Study 1 (RA patients, add-on to MTX)
Format: in vivo, human
Protocol: Double-blind, placebo-controlled add on study in subjects with moderately to severely active RA who have an inadequate response to methotrexate (MTX) (oral or parenteral).
595 subjects randomized to one of 6 dose regimens of Compound 1 (dosed as a [Compound 1:HCl:3H2O]) (3 dose levels administered either once or twice daily) or placebo on top of each subject's stable dose of MTX.
Compound 1 (dosed as a [Compound 1:HCl:3H2O]) is dosed for twelve weeks once daily (q.d.) (50 mg, 100 mg or 200 mg) or twice daily (b.i.d.) (25 mg, 50 mg or 100 mg); or placebo.
At Week 12, the subjects on placebo who have not achieved 20% improvement in swollen joint count (SJC66) and tender joint count (TJC68) are re-randomized automatically to receive Compound 1 (dosed as a [Compound 1:HCl:3H2O]) either at 100 mg q.d. or 50 mg b.i.d. doses in a blinded fashion; subjects on 50 mg q.d. who have not achieved 20% improvement in SJC66 and TJC68 will be assigned to 100 mg q.d. and subjects on 25 mg b.i.d. that have not achieved a 20% improvement in SJC66 and TJC68 will be assigned to 50 mg b.i.d. Subjects who switch treatment at week 12 are handled as if they discontinued at week 12 for the purpose of statistical analysis, whereas subjects in the other groups will maintain their randomized treatment until Week 24.
This assay relies on a homogeneous enzymatic colorimetric test. In the presence of magnesium ions, dextran sulfate selectively forms water-soluble complexes with LDL, VLDL and chylomicrons which are resistant to PEG-modified enzymes.
The cholesterol concentration of [HDL]-cholesterol is determined enzymatically by cholesterol esterase and cholesterol oxidase coupled with PEG to the amino groups (approx. 40%).
In the presence of peroxidase, the hydrogen peroxide generated reacts with 4-amino-antipyrine and Sodium N-(2-hydroxy-3-sulfopropyl)-3,5-dimethoxyaniline (HSDA) to form a purple-blue dye. The color intensity of this dye is directly proportional to the cholesterol concentration and is measured photometrically.
Human serum and plasma samples [HDL] determination was done on a Roche/Hitachi Cobas c 701/702 system which automatically calculate the analyte concentration of each sample. Samples containing precipitates are centrifuged before performing the assay.

[1] = continued 200 mg q.d. (N = 86), week 4
[2] = continued 200 mg q.d. (N = 86), week 8
[3] = continued 200 mg q.d. (N = 86), week 12
[4] = continued 200 mg q.d. (N = 86), week 16
[5] = continued 200 mg q.d. (N = 86), week 20
[6] = continued 200 mg q.d. (N = 86), week 24
[7] = from 25 mg b.i.d. to 50 mg b.i.d at 12 weeks (N = 17), week 1
[8] = from 25 mg b.i.d. to 50 mg b.i.d at 12 weeks (N = 17), week 2
[9] = from 25 mg b.i.d. to 50 mg b.i.d at 12 weeks (N = 17), week 4
[10] = from 25 mg b.i.d. to 50 mg b.i.d at 12 weeks (N = 17), week 8
[11] = from 25 mg b.i.d. to 50 mg b.i.d at 12 weeks (N = 17), week 12
[12] = from 25 mg b.i.d. to 50 mg b.i.d at 12 weeks (N = 17), week 24
[13] = from 50 mg q.d. to 100 mg q.d. at 12 weeks (N = 19), week 1
[14] = from 50 mg q.d. to 100 mg q.d. at 12 weeks (N = 19), week 2
[15] = from 50 mg q.d. to 100 mg q.d. at 12 weeks (N = 19), week 4
[16] = from 50 mg q.d. to 100 mg q.d. at 12 weeks (N = 19), week 8
[17] = from 50 mg q.d. to 100 mg q.d. at 12 weeks (N = 19), week 12
[18] = from 50 mg q.d. to 100 mg q.d. at 12 weeks (N = 19), week 16
[19] = from 50 mg q.d. to 100 mg q.d. at 12 weeks (N = 19), week 20
[20] = from 50 mg q.d. to 100 mg q.d. at 12 weeks (N = 19), week 24
[21] = placebo switched to 50 mg b.i.d at week 12 (N = 15), week 16
[22] = placebo switched to 50 mg b.i.d at week 12 (N = 15), week 20
[23] = placebo switched to 50 mg b.i.d at week 12 (N = 15), week 24

`O=C(Nc1nc2cccc(-c3ccc(CN4CCS(=O)(=O)CC4)cc3)n2n1)C1CC1` [Compound 1, cyclopropanecarboxylic acid {5-[4-(1,1-dioxo-thiomorpholin-4-ylmethyl)-phenyl]-[1,2,4]triazolo[1,5-a]pyridin-2yl}-amide] was tested, and the “[HDL] Mean percentage CFB - 24 weeks results” value (from here on “[HDL] Mean percentage CFB”) [1] was 19.85%, the “[HDL] Median CFB - 24 weeks results” value [1] was 0.25 mmol/L and the “[HDL] Mean CFB - 24 weeks results” value [2] was 0.29 mmol/L. The “[HDL] Mean percentage CFB” value [2] was 21.85%, the “[HDL] Median CFB - 24 weeks results” value [2] was 0.30 mmol/L and the “[HDL] Mean CFB - 24 weeks results” value [3] was 0.27 mmol/L. The “[HDL] Mean percentage CFB” value [3] was 21.24%, the “[HDL] Median CFB - 24 weeks results” value [3] was 0.26 mmol/L and the “[HDL] Mean CFB - 24 weeks results” value [4] was 0.27 mmol/L. For the same molecule, the “[HDL] Mean percentage CFB” value [4] was 21.14%, the “[HDL] Median CFB - 24 weeks results” value [4] was 0.23 mmol/L and the “[HDL] Mean CFB - 24 weeks results” value [5] was 0.30 mmol/L. The “[HDL] Mean percentage CFB” value [5] was 24.27%, the “[HDL] Median CFB - 24 weeks results” value [5] was 0.30 mmol/L and the “[HDL] Mean CFB - 24 weeks results” value [6] was 0.26 mmol/L. For the same molecule, the “[HDL] Mean percentage CFB” value [6] was 20.78%, the “[HDL] Median CFB - 24 weeks results” value [6] was 0.25 mmol/L and the “[HDL] Mean CFB - 24 weeks results” value [7] was -0.05 mmol/L. The “[HDL] Mean percentage CFB” value [7] was −1.35%, the “[HDL] Median CFB - 24 weeks results” value [7] was -0.01 mmol/L and the “[HDL] Mean CFB - 24 weeks results” value [8] was 0.03 mmol/L. The “[HDL] Mean percentage CFB” value [8] was 4.08%, the “[HDL] Median CFB - 24 weeks results” value [8] was 0.05 mmol/L and the “[HDL] Mean CFB - 24 weeks results” value [9] was -0.01 mmol/L. The “[HDL] Mean percentage CFB” value [9] was 1.09%, the “[HDL] Median CFB - 24 weeks results” value [9] was 0.00 mmol/L and the “[HDL] Mean CFB - 24 weeks results” value [10] was -0.02 mmol/L. The “[HDL] Mean percentage CFB” value [10] was 0.59%, the “[HDL] Median CFB - 24 weeks results” value [10] was 0.05 mmol/L and the “[HDL] Mean CFB - 24 weeks results” value [11] was 0.04 mmol/L. For the same molecule, the “[HDL] Mean percentage CFB” value [11] was 5.55%, the “[HDL] Median CFB - 24 weeks results” value [11] was 0.00 mmol/L and the “[HDL] Mean percentage CFB” value (from 25 mg b.i.d. to 50 mg b.i.d at 12 weeks (N = 17), week 16) was 7.37%. For the same molecule, the “[HDL] Mean percentage CFB” value (from 25 mg b.i.d. to 50 mg b.i.d at 12 weeks (N = 17), week 20) was 1.50%, the “[HDL] Mean CFB - 24 weeks results” value [12] was 0.10 mmol/L and the “[HDL] Mean percentage CFB” value [12] was 8.10%. The “[HDL] Median CFB - 24 weeks results” value [12] was 0.17 mmol/L, the “[HDL] Mean CFB - 24 weeks results” value [13] was 0.02 mmol/L and the “[HDL] Mean percentage CFB” value [13] was 2.29%. The “[HDL] Median CFB - 24 weeks results” value [13] was 0.00 mmol/L, the “[HDL] Mean CFB - 24 weeks results” value [14] was 0.10 mmol/L and the “[HDL] Mean percentage CFB” value [14] was 6.63%. For the same molecule, the “[HDL] Median CFB - 24 weeks results” value [14] was 0.07 mmol/L, the “[HDL] Mean CFB - 24 weeks results” value [15] was 0.07 mmol/L and the “[HDL] Mean percentage CFB” value [15] was 5.26%. For the same molecule, the “[HDL] Median CFB - 24 weeks results” value [15] was 0.06 mmol/L, the “[HDL] Mean CFB - 24 weeks results” value [16] was 0.05 mmol/L and the “[HDL] Mean percentage CFB” value [16] was 5.77%. The “[HDL] Median CFB - 24 weeks results” value [16] was 0.09 mmol/L, the “[HDL] Mean CFB - 24 weeks results” value [17] was -0.02 mmol/L and the “[HDL] Mean percentage CFB” value [17] was 2.41%. For the same molecule, the “[HDL] Median CFB - 24 weeks results” value [17] was -0.05 mmol/L, the “[HDL] Mean CFB - 24 weeks results” value [18] was 0.18 mmol/L and the “[HDL] Mean percentage CFB” value [18] was 11.43%. For the same molecule, the “[HDL] Median CFB - 24 weeks results” value [18] was 0.15 mmol/L, the “[HDL] Mean CFB - 24 weeks results” value [19] was 0.13 mmol/L and the “[HDL] Mean percentage CFB” value [19] was 8.89%. The “[HDL] Median CFB - 24 weeks results” value [19] was 0.20 mmol/L, the “[HDL] Mean CFB - 24 weeks results” value [20] was 0.11 mmol/L and the “[HDL] Mean percentage CFB” value [20] was 8.29%. For the same molecule, the “[HDL] Median CFB - 24 weeks results” value [20] was 0.11 mmol/L, the “[HDL] Mean CFB - 24 weeks results” value [21] was 0.08 mmol/L and the “[HDL] Mean percentage CFB” value [21] was 10.96%. The “[HDL] Median CFB - 24 weeks results” value [21] was 0.18 mmol/L, the “[HDL] Mean CFB - 24 weeks results” value [22] was 0.10 mmol/L and the “[HDL] Mean percentage CFB” value [22] was 12.63%. The “[HDL] Median CFB - 24 weeks results” value [22] was 0.21 mmol/L, the “[HDL] Mean CFB - 24 weeks results” value [23] was 0.10 mmol/L and the “[HDL] Mean percentage CFB” value [23] was 10.63%. For the same molecule, the “[HDL] Median CFB - 24 weeks results” value [23] was 0.10 mmol/L, the “[HDL] Mean percentage CFB” value (placebo switched to 100 mg q.d. at week 12 (N = 15), week 16) was −0.14% and the “[HDL] Mean percentage CFB” value (placebo switched to 100 mg q.d. at week 12 (N = 15), week 20) was 0.95%. For the same molecule, the “[HDL] Mean percentage CFB” value (placebo switched to 100 mg q.d. at week 12 (N = 15), week 24) was 0.14%.
